Patent US20220347310A1, “AMIDE-LINKED, AMINOBENZAZEPINE IMMUNOCONJUGATES, AND USES THEREOF” (BOLT BIOTHERAPEUTICS, INC., priority 2019, published 2022)

What was measured:
[1] = target: T1, human TLR8 (Homo sapiens, UniProt Q9NR97); assay: HEK reporter assay, HEK293 reporter cells expressing human TLR8; type: cell-based; conditions: for EC50: HEK293 NFKB reporter cells expressing human TLR8, read-out: HEK293 hTLR8 EC50; for TLR8 activity after NHBoc modification of the dipropylamide, versus parent compound: Human HEK293 reporter cells, BZA-2 vs BZA-1, BZA-4 vs BZA-3 (FIG. 1A, 1C)
T1 construct: host or cells: HEK293 NF-kB reporter cells
T1 sequence (Q9NR97 27-1041): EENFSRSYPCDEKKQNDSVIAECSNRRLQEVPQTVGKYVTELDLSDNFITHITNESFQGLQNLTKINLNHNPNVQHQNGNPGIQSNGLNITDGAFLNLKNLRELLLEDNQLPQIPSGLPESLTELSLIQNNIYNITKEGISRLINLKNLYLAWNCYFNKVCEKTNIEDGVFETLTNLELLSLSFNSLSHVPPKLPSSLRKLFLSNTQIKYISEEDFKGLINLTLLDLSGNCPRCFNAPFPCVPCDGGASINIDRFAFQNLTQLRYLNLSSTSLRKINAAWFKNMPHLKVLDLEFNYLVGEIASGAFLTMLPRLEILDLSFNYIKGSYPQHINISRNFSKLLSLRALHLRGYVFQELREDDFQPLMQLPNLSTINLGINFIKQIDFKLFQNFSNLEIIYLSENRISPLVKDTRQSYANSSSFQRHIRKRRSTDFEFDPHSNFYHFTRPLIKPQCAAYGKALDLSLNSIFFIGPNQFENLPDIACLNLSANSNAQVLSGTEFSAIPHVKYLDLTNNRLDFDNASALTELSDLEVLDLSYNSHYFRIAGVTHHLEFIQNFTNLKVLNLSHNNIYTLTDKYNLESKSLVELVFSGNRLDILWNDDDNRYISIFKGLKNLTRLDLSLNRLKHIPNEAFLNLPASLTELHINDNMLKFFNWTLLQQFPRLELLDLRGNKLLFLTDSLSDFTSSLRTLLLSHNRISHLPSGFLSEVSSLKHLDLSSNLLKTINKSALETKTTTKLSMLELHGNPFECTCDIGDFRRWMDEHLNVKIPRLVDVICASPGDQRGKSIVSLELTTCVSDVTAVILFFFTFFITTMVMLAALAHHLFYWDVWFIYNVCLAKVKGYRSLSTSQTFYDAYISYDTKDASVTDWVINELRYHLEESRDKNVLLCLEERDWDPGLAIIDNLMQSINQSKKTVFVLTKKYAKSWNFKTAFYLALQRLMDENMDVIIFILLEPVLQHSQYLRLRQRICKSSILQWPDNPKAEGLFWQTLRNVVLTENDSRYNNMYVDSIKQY
Experimental: Activity against HEK293 NFKB reporter cells expressing human TLR7 or human TLR8 was measured according to Example 30.
(§1) HEK293 reporter cells expressing human TLR7 or human TLR8 were purchased from Invivogen and vendor protocols were followed for cellular propagation and experimentation. Briefly, cells were grown to 80-85% confluence at 5% CO2 in DMEM supplemented with 10% FBS, Zeocin, and Blasticidin. Cells were then seeded in 96-well flat plates at 4×10^4 cells/well with substrate containing HEK detection medium and immunostimulatory molecules. Activity was measured using a plate reader at 620-655 nm wavelength.

[2] = target: T2, human TLR7 (Homo sapiens, UniProt Q9NYK1); assay: HEK reporter assay, HEK293 reporter cells expressing human TLR7; type: cell-based; conditions: for EC50: HEK293 NFKB reporter cells expressing human TLR7, read-out: HEK293 hTLR7 EC50; for TLR7 activity after NHBoc modification of the dipropylamide, versus parent compound: Human HEK293 reporter cells, BZA-2 vs BZA-1, BZA-4 vs BZA-3 (FIG. 1B, 1D)
T2 construct: host or cells: HEK293 NF-kB reporter cells
T2 sequence (Q9NYK1 27-1049): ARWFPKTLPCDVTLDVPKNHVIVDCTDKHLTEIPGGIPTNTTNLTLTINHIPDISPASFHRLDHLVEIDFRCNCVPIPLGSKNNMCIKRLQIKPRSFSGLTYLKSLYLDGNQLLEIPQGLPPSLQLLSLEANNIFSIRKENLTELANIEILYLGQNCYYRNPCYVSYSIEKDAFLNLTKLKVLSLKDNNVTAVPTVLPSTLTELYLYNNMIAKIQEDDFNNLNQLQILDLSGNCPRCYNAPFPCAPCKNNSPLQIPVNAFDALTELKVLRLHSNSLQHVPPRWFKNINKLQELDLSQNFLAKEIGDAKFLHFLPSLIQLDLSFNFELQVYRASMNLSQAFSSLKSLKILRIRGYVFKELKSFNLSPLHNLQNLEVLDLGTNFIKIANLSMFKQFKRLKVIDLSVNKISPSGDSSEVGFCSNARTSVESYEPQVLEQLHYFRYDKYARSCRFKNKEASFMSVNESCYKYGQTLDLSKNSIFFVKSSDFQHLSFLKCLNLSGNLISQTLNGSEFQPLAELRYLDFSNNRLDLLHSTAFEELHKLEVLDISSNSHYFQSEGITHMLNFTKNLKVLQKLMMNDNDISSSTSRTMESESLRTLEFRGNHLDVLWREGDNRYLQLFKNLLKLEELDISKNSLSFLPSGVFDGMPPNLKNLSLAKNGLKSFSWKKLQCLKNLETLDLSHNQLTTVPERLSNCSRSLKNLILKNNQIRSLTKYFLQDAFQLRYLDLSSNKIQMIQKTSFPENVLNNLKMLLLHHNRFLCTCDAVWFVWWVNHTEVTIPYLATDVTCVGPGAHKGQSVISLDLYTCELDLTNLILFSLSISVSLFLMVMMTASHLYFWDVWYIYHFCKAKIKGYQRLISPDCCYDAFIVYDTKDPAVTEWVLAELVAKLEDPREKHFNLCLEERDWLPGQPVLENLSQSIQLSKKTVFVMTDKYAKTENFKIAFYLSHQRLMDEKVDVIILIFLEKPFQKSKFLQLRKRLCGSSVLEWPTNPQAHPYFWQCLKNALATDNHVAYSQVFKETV
Experimental: Each compound was characterized by mass spectrometry and shown to have the mass indicated. Activity against HEK293 NFKB reporter cells expressing human TLR7 or human TLR8 was measured according to Example 30.
as §1

| SMILES | EC50 [1] [µM] | EC50 [2] [µM] | TLR7 activity after NHBoc modification of the dipropylamide, versus parent compound [2] | TLR8 activity after NHBoc modification of the dipropylamide, versus parent compound [1] |
| --- | --- | --- | --- | --- |
| CCCN(CCC)C(=O)C1=Cc2ccc(C(=O)Nc3cnc4c(c3)CNCC4)cc2N=C(N)C1 [8AmBza-19] | 2.18 | – | – | – |
| CCCN(OCC)C(=O)C1=Cc2ccc(C(=O)Nc3ccccc3)cc2N=C(N)C1 [8AmBza-15] | 0.034 | 4.86 | – | – |
| CCCN(CCCNC(=O)OC(C)(C)C)C(=O)C1=Cc2ccc(C(=O)Nc3cccc(COCCOCCNC(=O)OC(C)(C)C)c3)cc2N=C(N)C1 [8AmBza-8, tert-butyl N-[3-[[2-amino-8-[[3-[2-[2-(tert-butoxycarbonylamino)ethoxy]ethoxymethyl]phenyl]carbamoyl]-3H-1-benzazepine-4-carbonyl]-propyl-amino]propyl]carbamate] | 0.862 | > 9 | – | – |
| CCCN(CCCNC(=O)OC(C)(C)C)C(=O)C1=Cc2ccc(C(=O)Nc3cnc(NCCNC(=O)OC(C)(C)C)nc3)cc2N=C(N)C1 [8AmBza-7, tert-butyl N-[3-[[2-amino-8-[[2-[2-(tert-butoxycarbonylamino)ethylamino]pyrimidin-5-yl]carbamoyl]-3H-1-benzazepine-4-carbonyl]-propyl-amino]propyl]carbamate] | 1.76 | > 9 | – | – |
| CCCN(CCCNC(=O)OC(C)(C)C)C(=O)C1=Cc2ccc(C(=O)Nc3ccccc3)cc2N=C(N)C1 [8AmBza-9, tert-butyl (3-(2-amino-8-(phenylcarbamoyl)-N-propyl-3H-benzo [b]azepine-4-carboxamido)propyl)carbamate] | 0.127 | > 9 | – | – |
| CCCN(CCC)C(=O)C1=Cc2ccc(C(=O)Nc3cncc(CNC(=O)CNC(=O)OC(C)(C)C)c3)cc2N=C(NC(=O)OC(C)(C)C)C1 [8AmBza-22] | > 9 | > 9 | – | – |
| CCCN(CCCNC(=O)OC(C)(C)C)C(=O)C1=Cc2ccc(NC(=O)c3ccccc3)cc2N=C(N)C1 [BZA-4, tert-butyl (3-(2-amino-8-benzamido-N-propyl-3H-benzo[b]azepine-4-carboxamido)propyl)carbamate, reference compound] | – | – | increases TLR 7 activity | does not affect TLR 8 activity |
| CCCN(CCC)C(=O)C1=Cc2ccc(C(=O)Nc3cncc(CNC(=O)CN)c3)cc2N=C(N)C1 [8AmBza-21] | – | > 9 | – | – |

Now from value to molecule:

| EC50 [1] [µM] | EC50 [2] [µM] | TLR7 activity after NHBoc modification of the dipropylamide, versus parent compound [2] | TLR8 activity after NHBoc modification of the dipropylamide, versus parent compound [1] | SMILES |
| --- | --- | --- | --- | --- |
| 6.08 | 8.13 | – | – | CCCN(CCC)C(=O)C1=Cc2ccc(C(=O)Nc3cnc4c(c3)CN(C(=O)OC(C)(C)C)CC4)cc2N=C(NC(=O)OC(C)(C)C)C1 [8AmBza-20] |
| – | – | significantly increasing TLR7 activity | minimally perturbs TLR8 activity | CCCN(CCCNC(=O)OC(C)(C)C)C(=O)C1=Cc2ccc(-c3cccc(S(=O)(=O)N4CC(CO)C4)c3)cc2N=C(N)C1 [BZA-2, tert-butyl (3-(2-amino-8-(3-((3-(hydroxymethyl)azetidin-1-yl)sulfonyl)phenyl)-N-propyl-3H-benzo[b]azepine-4-carboxamido)propyl)carbamate, reference compound] |
| 0.782 | > 9 | – | – | CCCN(Cc1ccc(CNC(=O)OC(C)(C)C)cc1)C(=O)C1=Cc2ccc(C(=O)Nc3ccccc3)cc2N=C(N)C1 [8AmBza-17] |
| 0.245 | > 9 | – | – | CCCN(CCC(F)(F)F)C(=O)C1=Cc2ccc(C(=O)Nc3ccccc3)cc2N=C(N)C1 [8AmBza-14] |
| 0.077 | > 9 | – | – | CCCN(Cc1ccc(CN)cc1)C(=O)C1=Cc2ccc(C(=O)Nc3ccccc3)cc2N=C(N)C1 [8AmBza-16] |
| 5.62 | > 9 | – | – | CCCN(OCC)C(=O)C1=Cc2ccc(C(=O)Nc3ccc(N4CCC(C(=O)NCCN)CC4)nc3)cc2N=C(N)C1 [8AmBza-18, 2-amino-N8-[6-[4-(2-aminoethylcarbamoyl)-1-piperidyl]-3-pyridyl]-N4-ethoxy-N4-propyl-3H-1-benzazepine-4,8-dicarboxamide] |
